In ChEMBL document CHEMBL4304811, “Development of a Water-Soluble Indolylmaleimide Derivative IM-93 Showing Dual Inhibition of Ferroptosis and NETosis” (ACS Med Chem Lett, 2019):
Active and inactive are the calls of the source. No cut-off for these calls is given here.

What was measured:
[1] = biological target: Tyrosine-protein kinase JAK1 (Homo sapiens) (UniProt P23458); assay: Binding affinity to wild-type human partial length JAK1 JH1 catalytic domain (V856 to K1154 residues) expressed in bacterial expression system assessed as residual binding level at 10 uM by Kinomescan method relative to control
[2] = biological target: Mitogen-activated protein kinase kinase kinase 6 (Homo sapiens) (UniProt O95382); assay: Binding affinity to wild-type human partial length ASK2 (M278 to R972 residues) expressed in mammalian expression system assessed as residual binding level at 10 uM by Kinomescan method relative to control
[3] = biological target: Ephrin type-A receptor 5 (Homo sapiens) (UniProt P54756); assay: Binding affinity to wild-type human partial length EPHA5 (T627 to V930 residues) expressed in bacterial expression system assessed as residual binding level at 10 uM by Kinomescan method relative to control
[4] = biological target: Mitogen-activated protein kinase kinase kinase 20 (Homo sapiens) (UniProt Q9NYL2); assay: Binding affinity to wild-type human partial length ZAK (M1 to L331 residues) expressed in bacterial expression system assessed as residual binding level at 10 uM by Kinomescan method relative to control
THP-1 = assay: Inhibition of Pseudomonas aeruginosa-induced pyroptosis in human THP1 cells at 10 uM preincubated for 1 hr followed by bacterial infection and measured after 2 hrs by INT dye based LDH assay; type: functional, cell-based
[5] = biological target: MAP kinase-activated protein kinase 5 (Homo sapiens) (UniProt Q8IW41); assay: Binding affinity to wild-type human partial length MAPKAPK5 (M1 to D322 residues) expressed in mammalian expression system assessed as residual binding level at 10 uM by Kinomescan method relative to control
Chain of MAP kinase-activated protein kinase 5 (Homo sapiens) (Q8IW41 whole entry, the tested form may be a part): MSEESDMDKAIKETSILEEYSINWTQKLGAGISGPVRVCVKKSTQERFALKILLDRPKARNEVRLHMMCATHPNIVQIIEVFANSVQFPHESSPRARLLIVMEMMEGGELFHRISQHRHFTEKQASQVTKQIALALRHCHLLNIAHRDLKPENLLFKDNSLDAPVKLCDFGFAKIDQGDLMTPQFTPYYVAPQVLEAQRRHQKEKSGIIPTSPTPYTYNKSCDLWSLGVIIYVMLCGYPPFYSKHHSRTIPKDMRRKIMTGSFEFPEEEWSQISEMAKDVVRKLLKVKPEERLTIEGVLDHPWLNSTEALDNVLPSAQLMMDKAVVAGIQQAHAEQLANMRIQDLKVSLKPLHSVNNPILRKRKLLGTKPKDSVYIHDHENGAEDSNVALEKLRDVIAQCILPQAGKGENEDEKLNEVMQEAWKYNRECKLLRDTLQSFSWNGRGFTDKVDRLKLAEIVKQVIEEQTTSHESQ

[6] = biological target: Insulin receptor-related protein (Homo sapiens) (UniProt P14616); assay: Binding affinity to wild-type human partial length INSRR (R950 to E1278 residues) expressed in bacterial expression system assessed as residual binding level at 10 uM by Kinomescan method relative to control
Chain of Insulin receptor-related protein (Homo sapiens) (P14616 27-742 limits assumed): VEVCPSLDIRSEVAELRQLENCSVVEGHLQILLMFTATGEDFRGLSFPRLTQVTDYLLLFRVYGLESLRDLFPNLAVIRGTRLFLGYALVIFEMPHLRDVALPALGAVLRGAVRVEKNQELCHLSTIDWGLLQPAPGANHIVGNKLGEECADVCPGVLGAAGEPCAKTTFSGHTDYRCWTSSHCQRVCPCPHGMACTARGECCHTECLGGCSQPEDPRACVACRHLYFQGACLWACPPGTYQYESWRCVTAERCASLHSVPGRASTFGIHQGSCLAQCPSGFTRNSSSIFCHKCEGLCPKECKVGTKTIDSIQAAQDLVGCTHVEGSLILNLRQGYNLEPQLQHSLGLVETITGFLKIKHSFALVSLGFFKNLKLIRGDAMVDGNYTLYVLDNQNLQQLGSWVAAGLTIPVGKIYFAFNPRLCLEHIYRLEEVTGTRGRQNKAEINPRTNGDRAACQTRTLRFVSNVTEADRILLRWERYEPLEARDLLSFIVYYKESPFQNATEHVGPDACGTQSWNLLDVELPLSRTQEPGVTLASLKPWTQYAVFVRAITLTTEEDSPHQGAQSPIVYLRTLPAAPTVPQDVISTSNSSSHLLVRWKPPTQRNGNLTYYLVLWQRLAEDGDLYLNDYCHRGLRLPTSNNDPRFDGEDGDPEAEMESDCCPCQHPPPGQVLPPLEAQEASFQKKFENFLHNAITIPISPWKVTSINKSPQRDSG
Chain of Insulin receptor-related protein (Homo sapiens) (P14616 747-1297 limits assumed): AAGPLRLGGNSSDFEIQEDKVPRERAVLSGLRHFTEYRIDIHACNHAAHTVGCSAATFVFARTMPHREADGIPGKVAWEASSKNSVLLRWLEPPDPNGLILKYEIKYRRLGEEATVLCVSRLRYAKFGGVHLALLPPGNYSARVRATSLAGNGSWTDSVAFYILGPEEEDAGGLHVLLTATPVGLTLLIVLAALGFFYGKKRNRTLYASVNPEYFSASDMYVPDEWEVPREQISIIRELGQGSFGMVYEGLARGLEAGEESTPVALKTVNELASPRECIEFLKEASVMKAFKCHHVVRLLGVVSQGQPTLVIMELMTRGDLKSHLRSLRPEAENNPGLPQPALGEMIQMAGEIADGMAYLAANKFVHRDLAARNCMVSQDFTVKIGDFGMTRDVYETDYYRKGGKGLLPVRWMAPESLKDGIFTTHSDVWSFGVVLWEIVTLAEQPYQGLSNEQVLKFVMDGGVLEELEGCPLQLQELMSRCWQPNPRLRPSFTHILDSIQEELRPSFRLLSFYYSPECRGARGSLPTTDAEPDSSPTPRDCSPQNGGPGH

[7] = biological target: Receptor-interacting serine/threonine-protein kinase 2 (Homo sapiens) (UniProt O43353); assay: Binding affinity to wild-type human partial length RIPK2 (M1 to K310 residues) expressed in bacterial expression system assessed as residual binding level at 10 uM by Kinomescan method relative to control
[8] = biological target: Mitogen-activated protein kinase 4 (Homo sapiens) (UniProt P31152); assay: Binding affinity to wild-type human partial length ERK4 (M1 to L365 residues) expressed in bacterial expression system assessed as residual binding level at 10 uM by Kinomescan method relative to control
Chain of Mitogen-activated protein kinase 4 (Homo sapiens) (P31152 whole entry, the tested form may be a part): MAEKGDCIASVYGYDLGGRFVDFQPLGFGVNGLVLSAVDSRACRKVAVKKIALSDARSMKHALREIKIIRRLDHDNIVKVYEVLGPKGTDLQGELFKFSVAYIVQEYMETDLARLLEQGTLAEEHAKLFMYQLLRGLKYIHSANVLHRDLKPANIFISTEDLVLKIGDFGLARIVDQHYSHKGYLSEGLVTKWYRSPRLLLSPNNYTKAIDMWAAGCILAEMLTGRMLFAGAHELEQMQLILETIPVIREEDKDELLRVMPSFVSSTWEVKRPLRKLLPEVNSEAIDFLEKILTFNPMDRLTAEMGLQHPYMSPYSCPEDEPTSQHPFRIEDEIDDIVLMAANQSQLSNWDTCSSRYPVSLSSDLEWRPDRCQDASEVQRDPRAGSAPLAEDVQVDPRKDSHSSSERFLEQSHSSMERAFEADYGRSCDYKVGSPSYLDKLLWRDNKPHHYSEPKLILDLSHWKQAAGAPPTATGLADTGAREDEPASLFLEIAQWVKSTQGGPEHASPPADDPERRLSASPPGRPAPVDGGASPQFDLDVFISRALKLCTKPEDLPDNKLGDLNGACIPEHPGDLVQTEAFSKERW

[9] = biological target: Serine/threonine-protein kinase TBK1 (Homo sapiens) (UniProt Q9UHD2); assay: Binding affinity to wild-type human full length TBK1 (M1 to L729 residues) expressed in mammalian expression system assessed as residual binding level at 10 uM by Kinomescan method relative to control
[10] = biological target: Cyclin-dependent kinase-like 2 (Homo sapiens) (UniProt Q92772); assay: Binding affinity to wild-type human partial length CDKL2 (M1 to D327 residues) expressed in bacterial expression system assessed as residual binding level at 10 uM by Kinomescan method relative to control
[11] = biological target: Serine/threonine-protein kinase tousled-like 2 (Homo sapiens) (UniProt Q86UE8); assay: Binding affinity to wild-type human partial length TLK2 (E424 to N749 residues) expressed in bacterial expression system assessed as residual binding level at 10 uM by Kinomescan method relative to control
Chain of Serine/threonine-protein kinase tousled-like 2 (Homo sapiens) (Q86UE8 whole entry, looked up, the tested form may be a part): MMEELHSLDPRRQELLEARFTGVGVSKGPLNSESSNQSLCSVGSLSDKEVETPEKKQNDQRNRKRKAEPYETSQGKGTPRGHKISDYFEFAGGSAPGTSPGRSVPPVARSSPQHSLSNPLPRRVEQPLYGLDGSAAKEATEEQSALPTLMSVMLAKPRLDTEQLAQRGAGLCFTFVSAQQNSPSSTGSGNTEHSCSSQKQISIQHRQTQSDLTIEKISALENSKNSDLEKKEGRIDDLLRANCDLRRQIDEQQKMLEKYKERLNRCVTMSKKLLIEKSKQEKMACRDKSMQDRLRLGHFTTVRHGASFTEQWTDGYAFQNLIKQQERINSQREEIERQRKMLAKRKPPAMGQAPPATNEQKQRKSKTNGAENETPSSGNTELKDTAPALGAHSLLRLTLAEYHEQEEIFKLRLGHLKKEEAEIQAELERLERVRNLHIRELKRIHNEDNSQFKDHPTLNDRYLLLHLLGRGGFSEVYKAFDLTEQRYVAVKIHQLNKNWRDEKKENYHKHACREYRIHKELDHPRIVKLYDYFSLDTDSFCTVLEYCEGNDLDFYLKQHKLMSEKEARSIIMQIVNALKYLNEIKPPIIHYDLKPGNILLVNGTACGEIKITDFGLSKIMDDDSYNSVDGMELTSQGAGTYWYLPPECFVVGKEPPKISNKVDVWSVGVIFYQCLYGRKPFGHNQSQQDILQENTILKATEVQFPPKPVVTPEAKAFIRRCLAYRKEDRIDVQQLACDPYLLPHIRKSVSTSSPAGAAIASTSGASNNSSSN

[12] = biological target: Death-associated protein kinase 2 (Homo sapiens) (UniProt Q9UIK4); assay: Binding affinity to wild-type human full length DAPK2 (M1 to S370 residues) expressed in bacterial expression system assessed as residual binding level at 10 uM by Kinomescan method relative to control
[13] = biological target: Phosphatidylinositol 4,5-bisphosphate 3-kinase catalytic subunit delta isoform (Homo sapiens) (UniProt O00329); assay: Binding affinity to wild-type human partial length PIK3CD (R108 to Q1044 residues) expressed in mammalian expression system assessed as residual binding level at 10 uM by Kinomescan method relative to control
[14] = biological target: Ephrin type-B receptor 2 (Homo sapiens) (UniProt P29323); assay: Binding affinity to wild-type human partial length EPHB2 (I597 to L902 residues) expressed in bacterial expression system assessed as residual binding level at 10 uM by Kinomescan method relative to control
Chain of Ephrin type-B receptor 2 (Homo sapiens) (P29323 whole entry, the tested form may be a part): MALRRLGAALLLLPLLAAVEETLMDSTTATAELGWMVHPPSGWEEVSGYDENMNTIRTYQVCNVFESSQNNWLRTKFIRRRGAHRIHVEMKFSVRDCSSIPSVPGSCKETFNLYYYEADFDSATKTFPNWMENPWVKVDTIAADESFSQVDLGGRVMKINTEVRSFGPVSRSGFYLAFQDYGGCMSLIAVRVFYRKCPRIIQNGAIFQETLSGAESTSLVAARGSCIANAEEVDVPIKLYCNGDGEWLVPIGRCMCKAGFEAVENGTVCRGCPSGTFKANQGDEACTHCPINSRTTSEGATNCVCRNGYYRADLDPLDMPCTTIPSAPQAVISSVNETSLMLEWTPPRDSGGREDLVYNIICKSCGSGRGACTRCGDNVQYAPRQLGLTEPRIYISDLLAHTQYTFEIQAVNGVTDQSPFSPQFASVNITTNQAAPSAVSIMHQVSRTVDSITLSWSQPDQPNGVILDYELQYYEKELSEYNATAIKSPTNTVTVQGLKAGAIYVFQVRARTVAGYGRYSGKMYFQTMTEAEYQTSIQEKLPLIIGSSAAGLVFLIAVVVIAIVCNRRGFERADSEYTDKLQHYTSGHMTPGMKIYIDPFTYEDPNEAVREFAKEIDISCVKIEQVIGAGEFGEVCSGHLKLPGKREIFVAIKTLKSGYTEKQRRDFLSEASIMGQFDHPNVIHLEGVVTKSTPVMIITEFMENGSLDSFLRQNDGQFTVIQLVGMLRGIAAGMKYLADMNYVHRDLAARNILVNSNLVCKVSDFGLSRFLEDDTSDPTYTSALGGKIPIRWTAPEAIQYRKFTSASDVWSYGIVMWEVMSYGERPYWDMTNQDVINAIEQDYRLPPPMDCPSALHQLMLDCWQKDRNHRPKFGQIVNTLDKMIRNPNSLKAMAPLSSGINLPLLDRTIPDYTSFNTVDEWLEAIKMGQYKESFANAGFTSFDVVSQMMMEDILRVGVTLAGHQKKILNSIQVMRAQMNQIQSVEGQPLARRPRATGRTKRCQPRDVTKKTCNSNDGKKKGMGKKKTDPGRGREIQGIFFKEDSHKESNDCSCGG

[15] = biological target: TRAF2 and NCK-interacting protein kinase (Homo sapiens) (UniProt Q9UKE5); assay: Binding affinity to wild-type human partial length TNIK (D4 to K311 residues) expressed in bacterial expression system assessed as residual binding level at 10 uM by Kinomescan method relative to control
[16] = biological target: Tyrosine-protein kinase Yes (Homo sapiens) (UniProt P07947); assay: Binding affinity to wild-type human partial length YES (T257 to L543 residues) expressed in bacterial expression system assessed as residual binding level at 10 uM by Kinomescan method relative to control
Neutrophil = assay: Inhibition of PMA-induced superoxide production in C57BL6 mouse neutrophils at 10 uM preincubated for 30 mins followed by PMA stimulation and measured after 30 mins by luminol-lucignenin based luminescence assay; type: functional, cell-based
[17] = system: Phosphatidylinositol 4,5-bisphosphate 3-kinase catalytic subunit alpha isoform (Homo sapiens), P42336 [C420R]; assay: Binding affinity to human partial length PIK3CA C420R mutant (R108 to N1068 residues) expressed in mammalian expression system assessed as residual binding level at 10 uM by Kinomescan method relative to control
[18] = biological target: Calcium/calmodulin-dependent protein kinase type 1 (Homo sapiens) (UniProt Q14012); assay: Binding affinity to wild-type human full length CAMK1 (M1 to L370 residues) expressed in bacterial expression system assessed as residual binding level at 10 uM by Kinomescan method relative to control
[19] = biological target: Proto-oncogene tyrosine-protein kinase receptor Ret (Homo sapiens) (UniProt P07949); assay: Binding affinity to wild-type human partial length RET (E713 to D1014 residues) expressed in bacterial expression system assessed as residual binding level at 10 uM by Kinomescan method relative to control
[20] = biological target: Ephrin type-B receptor 1 (Homo sapiens) (UniProt P54762); assay: Binding affinity to wild-type human partial length EPHB1 (P589 to T911 residues) expressed in bacterial expression system assessed as residual binding level at 10 uM by Kinomescan method relative to control
[21] = biological target: Serine/threonine-protein kinase WNK1 (Homo sapiens) (UniProt Q9H4A3); assay: Binding affinity to wild-type human partial length WNK1 (Q194 to A490 residues) expressed in mammalian expression system assessed as residual binding level at 10 uM by Kinomescan method relative to control
[22] = biological target: Vascular endothelial growth factor receptor 2 (Homo sapiens) (UniProt P35968); assay: Binding affinity to wild-type human partial length VEGFR2 (R787 to P1253 residues) expressed in mammalian expression system assessed as residual binding level at 10 uM by Kinomescan method relative to control
[23] = biological target: Mitogen-activated protein kinase kinase kinase kinase 3 (Homo sapiens) (UniProt Q8IVH8); assay: Binding affinity to wild-type human partial length MAP4K3 (M1 to D301 residues) expressed in bacterial expression system assessed as residual binding level at 10 uM by Kinomescan method relative to control
Chain of Mitogen-activated protein kinase kinase kinase kinase 3 (Homo sapiens) (Q8IVH8 whole entry, the tested form may be a part): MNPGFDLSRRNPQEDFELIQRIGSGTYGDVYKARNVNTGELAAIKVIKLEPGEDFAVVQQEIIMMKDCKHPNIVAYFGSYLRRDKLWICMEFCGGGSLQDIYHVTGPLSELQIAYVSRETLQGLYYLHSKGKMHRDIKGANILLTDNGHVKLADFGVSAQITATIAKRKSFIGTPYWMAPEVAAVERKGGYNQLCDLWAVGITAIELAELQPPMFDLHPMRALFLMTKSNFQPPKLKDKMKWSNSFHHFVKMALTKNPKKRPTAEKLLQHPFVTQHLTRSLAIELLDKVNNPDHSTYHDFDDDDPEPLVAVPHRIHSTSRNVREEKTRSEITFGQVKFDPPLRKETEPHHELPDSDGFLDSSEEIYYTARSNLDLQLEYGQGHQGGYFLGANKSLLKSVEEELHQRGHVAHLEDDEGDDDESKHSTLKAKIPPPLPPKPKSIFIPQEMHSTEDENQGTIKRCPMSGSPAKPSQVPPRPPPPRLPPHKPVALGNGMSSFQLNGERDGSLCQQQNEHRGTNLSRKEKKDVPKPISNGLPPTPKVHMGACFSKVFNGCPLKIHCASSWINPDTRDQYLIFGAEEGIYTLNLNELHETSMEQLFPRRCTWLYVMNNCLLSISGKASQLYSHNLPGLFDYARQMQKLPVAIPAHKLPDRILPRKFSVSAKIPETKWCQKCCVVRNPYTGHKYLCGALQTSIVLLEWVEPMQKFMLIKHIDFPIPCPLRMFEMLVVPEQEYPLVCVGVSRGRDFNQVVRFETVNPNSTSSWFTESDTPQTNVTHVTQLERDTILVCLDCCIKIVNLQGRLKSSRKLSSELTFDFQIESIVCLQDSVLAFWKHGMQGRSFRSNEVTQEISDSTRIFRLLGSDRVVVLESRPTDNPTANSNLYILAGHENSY

Q: What does the source list for CC(C)N1C(=O)C(NCCCN(C)C)=C(c2cn(C)c3ccccc23)C1=O.Cl?
A: Activity [1]: 89%; Activity [2]: 98%; Activity [3]: 96%; Activity [4]: 84%; inhibition (THP-1): inactive; Activity [5]: 71%; Activity [6]: 95%; Activity [7]: 100%; Activity [8]: 100%; Activity [9]: 73%; Activity [10]: 91%; Activity [11]: 84%; Activity [12]: 100%; Activity [13]: 78%; Activity [14]: 97%; Activity [15]: 100%; Activity [16]: 100%; inhibition (Neutrophil): inactive; Activity [17]: 75%; Activity [18]: 100%; Activity [19]: 98%; Activity [20]: 99%; Activity [21]: 68%; Activity [22]: 66%; Activity [23]: 96%
